Columns and labels:
[1] = Optical properties (absorption and emission maxima, Stokes' shift); format: physicochemical; conditions: SLNs formulation (example 4) or H2O
Source text: Additional optical features (i.e. maximum absorption and emission wavelengths, Stokes' shifts) of ICG in aqueous medium and after incorporation in the SLNs are reported in Table E.

[2] = UV-Vis spectra for J-aggregates evaluation; format: physicochemical; conditions: SLNs suspension up to 120 days, free ICG in aqueous solution up to 15 days
Method: In FIG. 4 (panel A, Example 7) there are reported the UV-Vis spectra of ICG-loaded SLNs suspension just after the formulation date and 90 and 120 days later. […] The absorbance at 800 nm is recovered at 96% with respect to the initial value. In addition, the fluorescence emission properties can be preserved by the incorporation of ICG in the SLNs over the observed period of time (data not shown).
UV-Vis spectra of ICG-loaded SLNs suspension, prepared as described in the example 4, were recorded after the end of the formulation date, 90 and 120 days later keeping the suspension at store condition. After 120 days the absorbance was recovered at 96% with respect to the initial value (FIG. 4 A).
A solution of ICG (0.14 mg/mL) was prepared in glucosate (5.5%) solution. The sample was diluted before the Uv-Vis analysis and the absorption behaviour was evaluated from 300 to 950 nm until 15 days (FIG. 4 B).

[3] = human recommended dose of 0.5 mg/kg, intravenous; cited from earlier work
[4] = tendency to aggregate; cited from earlier work
[5] = Photobleaching experiment, 785 nm laser radiation; format: physicochemical; conditions: aqueous medium, 37° C., 3 sec irradiation/1 sec dark repeated for 1 h
Method: A further advantage of the present invention is the improved photostability of the dye with respect to the free dye in water solution. An experiment was performed in aqueous medium by the exposition of free ICG solution and the ICG loaded SLNs suspension to a 785 nm laser radiation (see FIG. 2, Example 8). The fluorescence emissions were collected by NIR fluorescent imaging system (Pearl® Impulse system by LI-COR Biosciences). […] Then, the experiment was carried out in duplicate at 37° C. irradiating both samples for 3 sec and keeping the samples in the dark for 1 sec. This sequence was repeated in continuous for 1 h.
The photobleaching experiment was performed by the exposition of free ICG aqueous solution and the ICG loaded SLNs suspension to a 785 nm laser radiation The fluorescence emissions were collected by NIR fluorescent imaging system (Pearl Impulse system by LI-COR Biosciences).
Then, the experiment was carried out in duplicate at 37° C. irradiating both samples for 3 sec and keeping the samples in the dark for 1 sec. This sequence was repeated in continuous for 1 h.

SMILES: CC1(C)C(/C=C/C=C/C=C/C=C2/N(CCCCS(=O)(=O)[O-])c3ccc4ccccc4c3C2(C)C)=[N+](CCCCS(=O)(=O)[O-])c2ccc3ccccc3c21.[Na+] [ICG, Indocyanine Green]
- A max wavelength (nm) [1]: 780 nm
- Fluor. Emission λmax (nm) [1]: 809 nm
- Stokes' shift [1]: 29
- aggregates (J-aggregates) formation [2]: can aggregate in few days
- blood half-time [3]: around 3.0 minutes
- time within which aqueous solution must be used [4]: ≤ 6 h
- fluorescence emission remaining, of the initial emission fluorescence efficiency [5]: slightly above zero

Source: patent US10780184B2, “Fluorescent solid lipid nanoparticles composition and preparation thereof” (BRACCO IMAGING S.P.A., priority 2013, dated 2020)
